Laboratory results published in ChEMBL document CHEMBL1129760, “A topliss tree analysis of the HIV-protease inhibitory activity of 6-phenyl-4-hydroxy-pyran-2-ones” (Bioorg Med Chem Lett, 1996).

What follows are molecules tested against Human immunodeficiency virus type 1 protease (Human immunodeficiency virus 1, UniProt Q72874) (assay: Inhibitory activity against purified HIV-1 protease (BH10) at a pH of 4.7 and a final enzyme concentration of 0.45-1.1 nM).

`CC(C)c1ccccc1Sc1c(O)cc(-c2cc(Cl)cc(Cl)c2)oc1=O` and `CC(C)c1ccccc1Sc1c(O)cc(-c2ccc(Cl)c(Cl)c2)oc1=O` are within 1.5-fold of each other in IC50: 0.026 µM for the first, 0.022 µM for the second.

Compared with `CCc1cccc(-c2cc(O)c(Sc3ccccc3C(C)C)c(=O)o2)c1`, `Cc1cccc(-c2cc(O)c(Sc3ccccc3C(C)C)c(=O)o2)c1` is 19-fold lower in IC50: 0.262 µM for the first, 0.014 µM for the second.

`Cc1ccc(-c2cc(O)c(Sc3ccccc3C(C)C)c(=O)o2)cc1` and `CC(C)c1ccccc1Sc1c(O)cc(-c2ccc(O)cc2)oc1=O` are within 1.5-fold of each other in IC50: 0.059 µM for the first, 0.054 µM for the second.

Compared with `CC(C)c1ccccc1Sc1c(O)cc(-c2cccc(O)c2)oc1=O`, `CC(C)c1ccccc1Sc1c(O)cc(-c2cccc(Cl)c2)oc1=O` is 3.9-fold lower in IC50: 0.089 µM for the first, 0.023 µM for the second.

First: CC(C)c1ccccc1Sc1c(O)cc(-c2cccc(-c3ccccc3)c2)oc1=O
Second: CC(C)c1ccccc1Sc1c(O)cc(-c2cccc(C(=O)O)c2)oc1=O
The IC50 of the first is 4-fold lower: 0.038 µM for the first, 0.151 µM for the second. The first is the more potent here.

Going from `Cc1ccccc1-c1cc(O)c(Sc2ccccc2C(C)C)c(=O)o1` to `CC(C)c1ccccc1Sc1c(O)cc(-c2ccccc2Cl)oc1=O`, the IC50 falls from 1.34 µM to 0.225 µM (6-fold).

Compared with `CC(C)c1ccccc1Sc1c(O)cc(-c2ccc(C#N)cc2)oc1=O`, `CC(C)c1ccccc1Sc1c(O)cc(-c2ccc(F)cc2)oc1=O` is 1.7-fold lower in IC50: 0.205 µM for the first, 0.124 µM for the second. The second is the more potent here.

Compared with `CC(C)c1ccccc1Sc1c(O)cc(-c2ccc(O)c(C(=O)O)c2)oc1=O`, `COC(=O)c1cc(-c2cc(O)c(Sc3ccccc3C(C)C)c(=O)o2)ccc1O` is 4.7-fold lower in IC50: 0.292 µM for the first, 0.062 µM for the second.

Going from `CC(C)c1ccccc1Sc1c(O)cc(-c2cccc(C(F)(F)F)c2)oc1=O` to `CC(C)c1ccccc1Sc1c(O)cc(-c2cccc(N(C)C)c2)oc1=O`, the IC50 rises from 0.076 µM to 0.114 µM (1.5-fold).

First: CCOC(=O)c1cccc(-c2cc(O)c(Sc3ccccc3C(C)C)c(=O)o2)c1
Second: COC(=O)c1cccc(-c2cc(O)c(Sc3ccccc3C(C)C)c(=O)o2)c1
The IC50 of the first is 24-fold higher: 1.93 µM for the first, 0.08 µM for the second.

First: CC(C)c1ccccc1Sc1c(O)cc(-c2ccc([N+](=O)[O-])cc2)oc1=O
Second: CC(C)c1ccccc1Sc1c(O)cc(-c2cccc([N+](=O)[O-])c2)oc1=O
The IC50 of the first is 2.9-fold higher: 0.191 µM for the first, 0.067 µM for the second.

Going from `CCOC(=O)c1ccc(-c2cc(O)c(Sc3ccccc3C(C)C)c(=O)o2)cc1` to `CC(C)c1ccccc1Sc1c(O)cc(-c2ccc(C(N)=O)cc2)oc1=O`, the IC50 rises from 0.035 µM to 0.135 µM (3.9-fold). The first is the more potent here.

First: CC(C)(C)NC(=O)[C@@H]1CCCCN1C[C@@H](O)[C@H](Cc1ccccc1)NC(=O)[C@H](CC(N)=O)NC(=O)c1ccc2ccccc2n1
Second: CC(C)c1ccccc1Sc1c(O)cc(-c2ccc(C(=O)O)cc2)oc1=O
The IC50 of the first is 6.8-fold lower: 0.01 µM for the first, 0.068 µM for the second. The first is the more potent here.

First: COc1ccccc1-c1cc(O)c(Sc2ccccc2C(C)C)c(=O)o1
Second: COc1ccc(-c2cc(O)c(Sc3ccccc3C(C)C)c(=O)o2)cc1
The IC50 of the first is 17-fold higher: 1.42 µM for the first, 0.083 µM for the second.

First: CCOC(=O)c1cc(-c2cc(O)c(Sc3ccccc3C(C)C)c(=O)o2)ccc1O
Second: Cc1cc(C)cc(-c2cc(O)c(Sc3ccccc3C(C)C)c(=O)o2)c1
The IC50 of the first is 9.9-fold higher: 0.148 µM for the first, 0.015 µM for the second. The second is the more potent here.

`CC(C)c1ccccc1Sc1c(O)cc(-c2ccc(Cl)cc2)oc1=O` gave an IC50 of 0.076 µM.
